Measured values reported in patent US11446287B2, “Compounds and methods for EP300 or CBP modulation and indications therefor” (Opna Immuno-Oncology SA, priority 2019, dated 2022).

These compounds were tested against T1, Recombinant human EP300 containing the bromodomain (EP300-BD (1040-1161)) (Homo sapiens, UniProt Q09472) (assay: EP300 Alphascreen binding assay).
T1 construct: Recombinant human EP300 bromodomain (EP300-BD (1040-1161)); made in house; host or cells: E. coli BL21-CodonPlus (DE3), modified pET vector
T1 sequence (Q09472 1040-1161): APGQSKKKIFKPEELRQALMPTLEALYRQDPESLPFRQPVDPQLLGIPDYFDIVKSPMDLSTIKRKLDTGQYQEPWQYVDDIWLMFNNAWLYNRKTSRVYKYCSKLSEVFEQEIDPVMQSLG
Summary of the method: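 Displacement of a biotinylated acetyl-K56 histone H3 peptide from the N-His bromodomain construct (1040-1161) measured by AlphaScreen proximity, beads at 7.5 μg/ml final, read 60 min after addition. Protein, peptide and compound first incubated 1 h at room temperature, pH 7.5 HEPES buffer; IC50 by four-parameter logistic fit.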

For `Cc1noc(C)c1-c1cnc2c(c1)c(-c1cccc(C(=O)O)c1)cn2Cc1ccccn1` [P-0049, 3-(5-(3,5-dimethylisoxazol-4-yl)-1-(pyridin-2-ylmethyl)-1H-pyrrolo[2,3-b]pyridin-3-yl)benzoic acid], which IC50 is on record?
Its IC50 is 0.1 to 1000 nM.

Which IC50 does the source give for `Cc1noc(C)c1-c1cnc2c(c1)c(-c1cccc(C(=O)O)c1)cn2CC1CC1` [P-0050, 3-(1-(cyclopropylmethyl)-5-(3,5-dimethylisoxazol-4-yl)-1H-pyrrolo[2,3-b]pyridin-3-yl)benzoic acid] here?
Its IC50 is 0.1 to 1000 nM.

For `Cc1noc(C)c1-c1cnc2c(c1)c(C#CC(C)(C)C(=O)O)cn2Cc1ccccc1` [P-0051, 4-(1-benzyl-5-(3,5-dimethylisoxazol-4-yl)-1H-pyrrolo[2,3-b]pyridin-3-yl)-2,2-dimethylbut-3-ynoic acid], which IC50 is on record?
The IC50 was 0.1 to 1000 nM.

For `COC(=O)c1cc(-n2cc(Cc3ccccc3)c3ncc(-c4c(C)noc4C)cc32)ccn1` [P-0052, methyl 4-(3-benzyl-6-(3,5-dimethylisoxazol-4-yl)-1H-pyrrolo[3,2-b]pyridin-1-yl)picolinate], which IC50 is on record?
The IC50 was 0.1 to 1000 nM.

With `Cc1noc(C)c1-c1cnc2c(Cc3ccccc3)cn(-c3ccnc(C(=O)O)c3)c2c1` [P-0053, 4-(3-benzyl-6-(3,5-dimethylisoxazol-4-yl)-1H-pyrrolo[3,2-b]pyridin-1-yl)picolinic acid] as the compound, how does the IC50 read?
The IC50 was 0.1 to 1000 nM.

`Cc1noc(C)c1-c1cnc2c(C(=O)c3ccccc3)cn(-c3ccnc(C(=O)O)c3)c2c1` [P-0054, 4-(3-benzoyl-6-(3,5-dimethylisoxazol-4-yl)-1H-pyrrolo[3,2-b]pyridin-1-yl)picolinic acid] was tested. Which IC50 did it give?
The IC50 was 0.1 to 1000 nM.

`Cc1noc(C)c1-c1cnc2c(c1)c(-c1ccc(C(=O)O)cc1OC(F)(F)F)cn2-c1ccc(C2CC2)nc1` [P-0388, 4-(1-(6-cyclopropylpyridin-3-yl)-5-(3,5-dimethylisoxazol-4-yl)-1H-pyrrolo[2,3-b]pyridin-3-yl)-3-(trifluoromethoxy)benzoic acid] was tested. Which IC50 did it give?
The IC50 was 0.1 to 1000 nM.

With `Cc1noc(C)c1-c1cnc2c(c1)c(-c1ccc(C(=O)O)cc1OC(F)(F)F)cn2C1CCC(C#N)C1` (stereo not drawn) [P-0389, 4-(1-(3-cyanocyclopentyl)-5-(3,5-dimethylisoxazol-4-yl)-1H-pyrrolo[2,3-b]pyridin-3-yl)-3-(trifluoromethoxy)benzoic acid] as the compound, how does the IC50 read?
The IC50 was 0.1 to 1000 nM.

How did the IC50 turn out when `Cc1noc(C)c1-c1cnc2c(c1)c(-c1c(Cl)cc(C(=O)O)cc1OCC(F)F)cn2-c1cnc(C2CC2)nc1` [P-0390, 3-chloro-4-(1-(2-cyclopropylpyrimidin-5-yl)-5-(3,5-dimethylisoxazol-4-yl)-1H-pyrrolo[2,3-b]pyridin-3-yl)-5-(2,2-difluoroethoxy)benzoic acid] was run?
Its IC50 is 0.1 to 1000 nM.

With `Cc1noc(C)c1-c1cnc2c(c1)c(-c1c(Cl)cc(C(=O)O)cc1OC1CCC1)cn2-c1cnc(C2CC2)nc1` [P-0391, 3-chloro-5-cyclobutoxy-4-(1-(2-cyclopropylpyrimidin-5-yl)-5-(3,5-dimethylisoxazol-4-yl)-1H-pyrrolo[2,3-b]pyridin-3-yl)benzoic acid] as the compound, how does the IC50 read?
The IC50 was 0.1 to 1000 nM.

With `COc1ncc(-n2cc(-c3ccc(C(=O)O)cc3OC(F)(F)F)c3cc(-c4c(C)noc4C)cnc32)cn1` [P-0392, 4-(5-(3,5-dimethylisoxazol-4-yl)-1-(2-methoxypyrimidin-5-yl)-1H-pyrrolo[2,3-b]pyridin-3-yl)-3-(trifluoromethoxy)benzoic acid] as the compound, how does the IC50 read?
Its IC50 is 0.1 to 1000 nM.

`Cc1noc(C)c1-c1cnc2c(c1)c(-c1c(Cl)cc(C(=O)O)cc1OC(C)C)cn2-c1cnc(C2CC2)nc1` [P-0393, 3-chloro-4-(1-(2-cyclopropylpyrimidin-5-yl)-5-(3,5-dimethylisoxazol-4-yl)-1H-pyrrolo[2,3-b]pyridin-3-yl)-5-isopropoxybenzoic acid] was tested. Which IC50 did it give?
Its IC50 is 0.1 to 1000 nM.

How did the IC50 turn out when `Cc1noc(C)c1-c1cnc2c(c1)c(-c1c(F)cc(C(=O)O)cc1OC1CC1)cn2C(C1CC1)C1CC1` [P-0394, 3-cyclopropoxy-4-(1-(dicyclopropylmethyl)-5-(3,5-dimethylisoxazol-4-yl)-1H-pyrrolo[2,3-b]pyridin-3-yl)-5-fluorobenzoic acid] was run?
The IC50 was 0.1 to 1000 nM.

Which IC50 does the source give for `Cc1noc(C)c1-c1cnc2c(c1)c(-c1c(Cl)cc(C(=O)O)cc1OC(F)(F)F)cn2-c1ncccc1C#N` [P-0395, 3-chloro-4-(1-(3-cyanopyridin-2-yl)-5-(3,5-dimethylisoxazol-4-yl)-1H-pyrrolo[2,3-b]pyridin-3-yl)-5-(trifluoromethoxy)benzoic acid] here?
The IC50 was 0.1 to 1000 nM.

For `Cc1noc(C)c1-c1cnc2c(c1)c(-c1c(Cl)cc(C(=O)O)cc1OC1CCC1)cn2-c1ncccc1C#N` [P-0396, 3-chloro-4-(1-(3-cyanopyridin-2-yl)-5-(3,5-dimethylisoxazol-4-yl)-1H-pyrrolo[2,3-b]pyridin-3-yl)-5-cyclobutoxybenzoic acid], which IC50 is on record?
Its IC50 is 0.1 to 1000 nM.

How did the IC50 turn out when `Cc1noc(C)c1-c1cnc2c(c1)c(-c1c(F)cc(C(=O)O)cc1OC1CC1)cn2C1CCOCC1` [P-0397, 3-cyclopropoxy-4-(5-(3,5-dimethylisoxazol-4-yl)-1-(tetrahydro-2H-pyran-4-yl)-1H-pyrrolo[2,3-b]pyridin-3-yl)-5-fluorobenzoic acid] was run?
Its IC50 is 0.1 to 1000 nM.

How did the IC50 turn out when `CCOc1nc(C(=O)O)c(Cl)cc1-c1cn(C2CCOCC2)c2ncc(-c3c(C)noc3C)cc12` [P-0398, 3-chloro-5-(5-(3,5-dimethylisoxazol-4-yl)-1-(tetrahydro-2H-pyran-4-yl)-1H-pyrrolo[2,3-b]pyridin-3-yl)-6-ethoxypicolinic acid] was run?
The IC50 was 0.1 to 1000 nM.

How did the IC50 turn out when `Cc1noc(C)c1-c1cnc2c(c1)c(-c1ccc(C(=O)O)cc1OC(F)(F)F)cn2-c1ccc(=O)n(C)c1` [P-0399, 4-(5-(3,5-dimethylisoxazol-4-yl)-1-(1-methyl-6-oxo-1,6-dihydropyridin-3-yl)-1H-pyrrolo[2,3-b]pyridin-3-yl)-3-(trifluoromethoxy)benzoic acid] was run?
Its IC50 is 0.1 to 1000 nM.

With `CCc1noc(C)c1-c1cnc2c(c1)c(-c1ccc(C(=O)O)cc1OC(F)(F)F)cn2C1CCOCC1` [P-0400, 4-(5-(3-ethyl-5-methylisoxazol-4-yl)-1-(tetrahydro-2H-pyran-4-yl)-1H-pyrrolo[2,3-b]pyridin-3-yl)-3-(trifluoromethoxy)benzoic acid] as the compound, how does the IC50 read?
Its IC50 is 0.1 to 1000 nM.

For `CCc1onc(C)c1-c1cnc2c(c1)c(-c1ccc(C(=O)O)cc1OC(F)(F)F)cn2C1CCOCC1` [P-0401, 4-(5-(5-ethyl-3-methylisoxazol-4-yl)-1-(tetrahydro-2H-pyran-4-yl)-1H-pyrrolo[2,3-b]pyridin-3-yl)-3-(trifluoromethoxy)benzoic acid], which IC50 is on record?
Its IC50 is 0.1 to 1000 nM.

For `Cc1cc(C(=O)O)cc(OC(C)C)c1-c1cn(C2CCOCC2)c2ncc(-c3c(C)noc3C)cc12` [P-0402, 4-(5-(3,5-dimethylisoxazol-4-yl)-1-(tetrahydro-2H-pyran-4-yl)-1H-pyrrolo[2,3-b]pyridin-3-yl)-3-isopropoxy-5-methylbenzoic acid], which IC50 is on record?
The IC50 was 0.1 to 1000 nM.

Which IC50 does the source give for `Cc1noc(C)c1-c1cnc2c(c1)c(-c1ccc(C(=O)O)cc1OC(C)C)cn2C1(C)CCOCC1` [P-0403, 4-(5-(3,5-dimethylisoxazol-4-yl)-1-(4-methyltetrahydro-2H-pyran-4-yl)-1H-pyrrolo[2,3-b]pyridin-3-yl)-3-isopropoxybenzoic acid] here?
Its IC50 is 0.1 to 1000 nM.

For `Cc1noc(C)c1-c1cnc2c(c1)c(-c1c(Cl)cc(C(=O)O)cc1OC(C)C)cn2C1(C)CCOCC1` [P-0404, 3-chloro-4-(5-(3,5-dimethylisoxazol-4-yl)-1-(4-methyltetrahydro-2H-pyran-4-yl)-1H-pyrrolo[2,3-b]pyridin-3-yl)-5-isopropoxybenzoic acid], which IC50 is on record?
Its IC50 is 0.1 to 1000 nM.

For `CCOc1nc(C(=O)O)ccc1-c1cn(C2(C)CCOCC2)c2ncc(-c3c(C)noc3C)cc12` [P-0405, 5-(5-(3,5-dimethylisoxazol-4-yl)-1-(4-methyltetrahydro-2H-pyran-4-yl)-1H-pyrrolo[2,3-b]pyridin-3-yl)-6-ethoxypicolinic acid], which IC50 is on record?
The IC50 was 0.1 to 1000 nM.

Which IC50 does the source give for `CCOc1nc(C(=O)O)c(Cl)cc1-c1cn([C@H]2CCOC2)c2ncc(-c3c(C)noc3C)cc12` [P-0406, (S)-3-chloro-5-(5-(3,5-dimethylisoxazol-4-yl)-1-(tetrahydrofuran-3-yl)-1H-pyrrolo[2,3-b]pyridin-3-yl)-6-ethoxypicolinic acid] here?
The IC50 was 0.1 to 1000 nM.

For `Cc1noc(C)c1-c1cnc2c(c1)c(-c1ccc(C(=O)O)cc1OC(C)C)cn2C1(C)CCOC1` (stereo not drawn) [P-0407, 4-(5-(3,5-dimethylisoxazol-4-yl)-1-(3-methyltetrahydrofuran-3-yl)-1H-pyrrolo[2,3-b]pyridin-3-yl)-3-isopropoxybenzoic acid], which IC50 is on record?
Its IC50 is 0.1 to 1000 nM.

With `Cc1noc(C)c1-c1cnc2c(c1)c(-c1c(Cl)cc(C(=O)O)cc1OC(C)C)cn2C1(C)CCOC1` (stereo not drawn) [P-0408, 3-chloro-4-(5-(3,5-dimethylisoxazol-4-yl)-1-(3-methyltetrahydrofuran-3-yl)-1H-pyrrolo[2,3-b]pyridin-3-yl)-5-isopropoxybenzoic acid] as the compound, how does the IC50 read?
The IC50 was 0.1 to 1000 nM.

With `Cc1noc(C)c1-c1cnc2c(c1)c(-c1c(Cl)cc(C(=O)O)cc1OC1CC1)cn2-c1ncccc1C#N` [P-0409, 3-chloro-4-(1-(3-cyanopyridin-2-yl)-5-(3,5-dimethylisoxazol-4-yl)-1H-pyrrolo[2,3-b]pyridin-3-yl)-5-cyclopropoxybenzoic acid] as the compound, how does the IC50 read?
Its IC50 is 0.1 to 1000 nM.

With `Cc1noc(C)c1-c1cnc2c(c1)c(-c1c(F)cc(C(=O)O)cc1OC1CCC1)cn2C1CCOCC1` [P-0410, 3-cyclobutoxy-4-(5-(3,5-dimethylisoxazol-4-yl)-1-(tetrahydro-2H-pyran-4-yl)-1H-pyrrolo[2,3-b]pyridin-3-yl)-5-fluorobenzoic acid] as the compound, how does the IC50 read?
Its IC50 is 0.1 to 1000 nM.

How did the IC50 turn out when `CCOc1nc(C(=O)O)cc(C)c1-c1cn(C2CCOCC2)c2ncc(-c3c(C)noc3C)cc12` [P-0411, 5-(5-(3,5-dimethylisoxazol-4-yl)-1-(tetrahydro-2H-pyran-4-yl)-1H-pyrrolo[2,3-b]pyridin-3-yl)-6-ethoxy-4-methylpicolinic acid] was run?
Its IC50 is 0.1 to 1000 nM.
